Target: rat brain cortical membranes ([35S]-TBPS binding; GABAA receptor)
Assay: Steroid inhibition of [35S]-TBPS binding
Conditions: 3 nM [35S]-TBPS, in the presence of 5 mM GABA, 90 min at room temp
Experimental: [35S]-t-Butylbicyclophosphorothionate (TBPS) binding assays using rat brain cortical membranes in the presence of 5 mM GABA has been described (Gee et al, J. Pharmacol. Exp. Ther. 1987, 241, 346-353; Hawkinson et al, Mol. Pharmacol. 1994, 46, 977-985; Lewin, A. H et al., Mol. Pharmacol. 1989, 35, 189-194).
Briefly, cortices are rapidly removed following decapitation of carbon dioxide-anesthetized Sprague-Dawley rats (200-250 g). The cortices are homogenized in 10 volumes of ice-cold 0.32 M sucrose using a glass/teflon homogenizer and centrifuged at 1500×g for 10 min at 4° C. The resultant supernatants are centrifuged at 10,000×g for 20 min at 4° C. to obtain the P2 pellets. The P2 pellets are resuspended in 200 mM NaCl/50 mM Na—K phosphate pH 7.4 buffer and centrifuged at 10,000×g for 10 min at 4° C. This washing procedure is repeated twice and the pellets are resuspended in 10 volumes of buffer. Aliquots ([…]) of the membrane suspensions are incubated with 3 nM [35S]-TBPS and 5 mL aliquots of test drug dissolved in dimethyl sulfoxide (DMSO) (final 0.5%) in the presence of 5 mM GABA. The incubation is brought to a final volume of 1.0 mL with buffer. Nonspecific binding is determined in the presence of […] and ranged from 15 to 25%. […] Filter bound radioactivity is measured by liquid scintillation spectrometry. […]

SMILES	IC50
[2H][C@]1(C(=O)Cn2cc(C#N)cn2)CC[C@H]2[C@@H]3CC[C@@H]4C[C@](C)(O)CC[C@@H]4[C@H]3CC[C@@]21C [Compound A10, 1-(2-((3R,5R,8R,9R,10S,13S,14S,17S)-3-hydroxy-3,13-dimethylhexadecahydro-1H-cyclopenta[a]phenanthren-17-yl-17-d)-2-oxoethyl)-1H-pyrazole-4-carbonitrile]	< 10 nM
[2H]C([2H])([2H])[C@@]1(O)CC[C@H]2[C@H](CC[C@@H]3[C@@H]2CC[C@]2(C)[C@@H](C(=O)Cn4cc(C#N)cn4)CC[C@@H]32)C1 [Compound 1, 1-(2-((3R,5R,8R,9R,10S,13S,14S,17S)-3-hydroxy-13-methyl-3-(methyl-d3)hexadecahydro-1H-cyclopenta[a]phenanthren-17-yl)-2-oxoethyl)-1H-pyrazole-4-carbonitrile]	< 10 nM

From patent publication US11667668B2, “Compositions and methods for treating CNS disorders” (Sage Therapeutics, Inc., priority 2017, dated 2023)
